Experimental data reported in the supplement of paper PMC10307832.

How the values were obtained:
Assay in all cases: relative viability (nuclei count vs DMSO), 5 days (fraction); higher = more cells survive
TGX 221 + Linsitinib = compound: CC1=CN2C(=O)C=C(N=C2C(=C1)C(C)NC3=CC=CC=C3)N4CCOCC4 [TGX 221] + C[C@]1(O)C[C@@H](c2nc(-c3ccc4ccc(-c5ccccc5)nc4c3)c3c(N)nccn32)C1 [Linsitinib] (partner 1 µM)
Procedure, shortened: (§1)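 Lung cancer cell lines in 1536-well plates were dosed by pin tool the day after seeding, either with one drug alone or with a fixed anchor-drug dose plus five library-drug doses (not always all listed) in √10 steps. After 5 days, cells were fixed and their nuclei stained in one step (final 0.05% Triton X-100, 1% formaldehyde, 1 ug/ml Hoechst), then counted on 4× images. Relative viability is the nuclei count in treated wells divided by that in vehicle wells. Values are medians of duplicate plates.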

Ricolinostat + OSI-027 = compound: O=C(CCCCCCNC(=O)c1cnc(N(c2ccccc2)c2ccccc2)nc1)NO [Ricolinostat] + COc1cccc2cc(-c3nc([C@H]4CC[C@H](C(=O)O)CC4)n4ncnc(N)c34)[nH]c12 [OSI-027] (partner 0.5 µM)
Procedure, shortened: as §1

Ricolinostat + AZD7762 = compound: O=C(CCCCCCNC(=O)c1cnc(N(c2ccccc2)c2ccccc2)nc1)NO [Ricolinostat] + NC(=O)Nc1cc(-c2cccc(F)c2)sc1C(=O)N[C@H]1CCCNC1 [AZD7762] (partner 0.2 µM)
Procedure, shortened: as §1

[1] = compound: O=C(CCCCCCNC(=O)c1cnc(N(c2ccccc2)c2ccccc2)nc1)NO [Ricolinostat] + Nc1nc2[nH]cc(CCc3ccc(C(=O)N[C@@H](CCC(=O)O)C(=O)O)cc3)c2c(=O)[nH]1 [Pemetrexed] (partner 0.2 µM)
Procedure, shortened: as §1

| Cell Line | relative viability (TGX 221 + Linsitinib; first compound 0.08 µM) | relative viability (TGX 221 + Linsitinib; first compound 0.253 µM) | relative viability (TGX 221 + Linsitinib; first compound 0.8 µM) | relative viability (TGX 221 + Linsitinib; first compound 2.53 µM) | relative viability (TGX 221 + Linsitinib; first compound 8 µM) | relative viability (Ricolinostat + OSI-027; first compound 0.08 µM) | relative viability (Ricolinostat + OSI-027; first compound 0.253 µM) | relative viability (Ricolinostat + OSI-027; first compound 0.8 µM) | relative viability (Ricolinostat + OSI-027; first compound 2.53 µM) | relative viability (Ricolinostat + AZD7762; first compound 0.08 µM) | relative viability (Ricolinostat + AZD7762; first compound 0.253 µM) | relative viability (Ricolinostat + AZD7762; first compound 0.8 µM) | relative viability (Ricolinostat + AZD7762; first compound 2.53 µM) | relative viability ([1]; first compound 0.08 µM) | relative viability ([1]; first compound 0.253 µM) | relative viability ([1]; first compound 0.8 µM) | relative viability ([1]; first compound 2.53 µM) |
| --- | --- | --- | --- | --- | --- | --- | --- | --- | --- | --- | --- | --- | --- | --- | --- | --- | --- |
| HOP-62 | 1.06 | 1.09 | 1.02 | 1.01 | 0.889 | 0.636 | 0.815 | 0.79 | 0.625 | 0.352 | 0.521 | 0.53 | 0.277 | 0.304 | 0.28 | 0.337 | 0.319 |
| NCI-H1975 | 0.843 | 0.778 | 0.902 | 0.943 | 0.697 | 0.638 | 0.84 | 0.76 | 0.599 | 0.66 | 0.768 | 0.592 | 0.705 | 0.329 | 0.279 | 0.277 | 0.269 |
| NCI-H838 | 0.917 | 0.819 | 0.841 | 0.836 | 0.618 | 0.302 | 0.383 | 0.457 | 0.519 | 0.827 | 0.941 | 0.963 | 0.958 | 0.236 | 0.273 | 0.259 | 0.208 |
| NCI-H2085 | 0.947 | 0.774 | 0.673 | 0.309 | 0.408 | – | 0.72 | 0.627 | 0.414 | – | 0.912 | 0.934 | 0.784 | – | 0.799 | 0.738 | 0.758 |
| NCI-H3122 | 1.01 | 1.05 | 1 | 1.02 | 0.986 | – | 0.992 | 0.99 | 1.06 | 0.838 | 1.03 | 1.01 | 1.12 | 0.18 | 0.205 | 0.207 | 0.198 |
| HCC-15 | 0.893 | 0.86 | 0.878 | 0.845 | 0.827 | 0.501 | 0.64 | 0.624 | 0.592 | 1.09 | 1.11 | 1.37 | 1.29 | 0.22 | 0.214 | 0.231 | 0.234 |
| LU99A | 0.478 | 0.481 | 0.512 | 0.536 | 0.492 | 0.243 | 0.296 | 0.305 | 0.249 | 0.324 | 0.378 | 0.253 | 0.159 | 0.188 | 0.159 | 0.184 | 0.156 |
| NCI-H2405 | 0.595 | 0.698 | 0.639 | 0.697 | 0.573 | 0.481 | 0.71 | 0.671 | 0.568 | 0.698 | 0.781 | 0.738 | 0.76 | 0.916 | 1.04 | 1.06 | 1.12 |
| NCI-H1915 | 1.02 | 1.12 | 1.16 | 1.11 | 1.04 | 0.525 | 0.65 | 0.623 | 0.421 | 0.652 | 0.653 | 0.685 | 0.573 | 0.399 | 0.416 | 0.458 | 0.397 |
| NCI-H322M | 0.849 | 0.732 | 0.708 | 0.698 | 1.02 | – | 0.598 | 0.532 | 0.51 | 0.432 | 0.663 | 0.512 | 0.49 | 0.61 | 0.607 | 0.639 | 0.646 |
| LK-2 | 0.523 | 0.548 | 0.627 | 0.625 | 0.625 | 0.202 | 0.234 | 0.212 | 0.208 | 0.254 | 0.375 | 0.38 | 0.348 | 0.217 | 0.256 | 0.231 | 0.216 |
| LXF-289 | 0.956 | 0.965 | 0.98 | 0.931 | 1 | 0.668 | 0.906 | 0.782 | 0.749 | 1.07 | 1.07 | 1.11 | 1.06 | 0.935 | 0.775 | 0.895 | 0.792 |
| PC-3 [JPC-3] | 0.963 | 0.973 | 0.997 | 0.922 | 0.918 | – | 0.768 | 0.708 | 0.491 | 0.54 | 0.695 | 0.679 | 0.665 | 0.845 | 1.11 | 0.738 | 1 |
| BEN | 0.869 | 0.839 | 0.878 | 0.823 | 0.774 | 0.287 | 0.344 | 0.324 | 0.307 | 0.534 | 0.754 | 0.559 | 0.576 | 0.589 | 0.88 | 0.667 | 0.518 |
| NCI-H1355 | 0.743 | 0.666 | 0.621 | 0.453 | 0.546 | 0.296 | 0.477 | 0.404 | 0.299 | 0.689 | 0.853 | 0.674 | 0.575 | 0.916 | 1.07 | 0.95 | 1.01 |
| NCI-H441 | 0.623 | 0.644 | 0.485 | 0.571 | 0.548 | – | 0.725 | 0.595 | 0.59 | 0.982 | 1.06 | 0.924 | 0.801 | 0.267 | 0.25 | 0.289 | 0.272 |
